Experimental data taken from paper PMC2858699, “Proteolysis of Human Thrombin Generates Novel Host Defense Peptides” (PLoS Pathogens, 2010).
In brackets after ≈: the same amount, converted by molar mass. Where a SMILES comes first, the peptide text is derived from it.

Legend:
E. coli ATCC 25922 [1] = assay type: cell-based
Procedure: (§1) MIC assay was carried out by a microtiter broth dilution method as previously described in the NCSLA guidelines. Hemolysis, MTT, and LDH assays were performed as previously described (See Text S1).
(§2) MIC assay was carried out by a microtiter broth dilution method as previously described in the NCSLA guidelines (Wiegand, I., Hilpert, K. & Hancock, R.E. Agar and broth dilution methods to determine the minimal inhibitory concentration (MIC) of antimicrobial substances. Nat Protoc 3, 163-175 (2008)). In brief, fresh overnight colonies were suspended to a turbidity of 0.5 units and further diluted in Mueller-Hinton broth (Becton Dickinson). […] Ten µl of each concentration was added to each corresponding well of a 96-well microtiter plate (polypropylene, Costar Corp.) and 90 µl of bacteria (1x10^5) in MH medium added. The plate was incubated at 37 °C for 16-18 h. MIC was taken as the lowest concentration where no visual growth of bacteria was detected.
(§3) Table S2. […] The analysis was performed as described in Wiegand et al. and according to NCSLA guidelines. Additional clinical isolates were obtained from the Department of Bacteriology, Lund University Hospital. P. aeruginosa, E. coli and E. faecalis isolates were initially derived from patients with chronic ulcers, S. aureus from patients with atopic dermatitis. The S. pyogenes strain AP1 was from the WHO Collaborating Center for References and Research on Streptococci (Prague, Czech Republic).

[2] = test system: S. aureus Clinical isolate 18800; assay type: cell-based
Procedure: as §1, §2, §3

[3] = test system: P. aeruginosa Clinical isolate 51.1; assay type: cell-based
Procedure: as §1, §2, §3

[4] = test system: E. coli Clinical isolate 37.4; assay type: cell-based
Procedure: as §1, §2, §3

S. aureus FDA 486 = assay type: cell-based
Procedure: as §1, §2, §3

[5] = test system: P. aeruginosa Clinical isolate 27.1; assay type: cell-based
Procedure: as §1, §2, §3

[6] = test system: P. aeruginosa Clinical isolate 13.2; assay type: cell-based
Procedure: as §1, §2, §3

[7] = test system: P. aeruginosa Clinical isolate 62.1; assay type: cell-based
Procedure: as §1, §2, §3

P. aeruginosa ATCC 27853 = assay type: cell-based
Procedure: as §1, §2, §3

[8] = test system: E. faecalis Clinical isolate 2374; assay type: cell-based
Procedure: as §1, §2, §3

[9] = test system: S. aureus Clinical isolate 13430; assay type: cell-based
Procedure: as §1, §2, §3

[10] = test system: S. aureus Clinical isolate 14312; assay type: cell-based
Procedure: as §1, §2, §3

[11] = test system: S. aureus Clinical isolate 1086; assay type: cell-based
Procedure: as §1, §2, §3

[12] = test system: S. aureus Clinical isolate 16065; assay type: cell-based
Procedure: as §1, §2, §3

[13] = test system: P. aeruginosa Clinical isolate 15159; assay type: cell-based
Procedure: as §1, §2, §3

[14] = test system: P. aeruginosa Clinical isolate 10.5; assay type: cell-based
Procedure: as §1, §2, §3

[15] = test system: E. coli Clinical isolate 49.1; assay type: cell-based
Procedure: as §1, §2, §3

[16] = test system: P. aeruginosa Clinical isolate 23.1; assay type: cell-based
Procedure: as §1, §2, §3

S. aureus ATCC 29213 = assay type: cell-based
Procedure: as §1, §2, §3

[17] = test system: E. coli Clinical isolate 47.1; assay type: cell-based
Procedure: as §1, §2, §3

[18] = test system: S. aureus Clinical isolate 1090; assay type: cell-based
Procedure: as §1, §2, §3

[19] = test system: P. aeruginosa Clinical isolate 18488; assay type: cell-based
Procedure: as §1, §2, §3

[20] = test system: S. aureus Clinical isolate 18319; assay type: cell-based
Procedure: as §1, §2, §3

S. pyogenes AP1 = assay type: cell-based
Procedure: as §1, §2, §3

[21] = test system: S. aureus Clinical isolate 1088; assay type: cell-based
Procedure: as §1, §2, §3

E. coli ATCC 25922 [22] = assay: Viable count assay; assay type: cell-based; details: E. coli ATCC 25922 2×10^6 cfu/ml, 50 µl, 10 mM Tris pH 7.4 with 5 mM glucose, 37°C 2 h; 3 and 6 µM
Procedure: 2×10^6 cfu/ml of bacteria were incubated in 50 µl with proteins and peptides at a concentration of 3 and 6 µM, respectively.
E. coli ATCC 25922 bacteria were grown to mid-logarithmic phase in Todd-Hewitt (TH) medium. Bacteria were washed and re-suspended in 10 mM Tris, pH 7.4 containing 5 mM glucose. […] Serial dilutions of the incubation mixtures were plated on TH agar, followed by incubation at 37°C overnight and cfu determination.

[23] = Liposome leakage assay (carboxyfluorescein release)
Procedure: (E) Effects of the indicated peptides on liposome leakage. The membrane permeabilizing effect was recorded by measuring fluorescence release of carboxyfluorescein from PA (negatively charged) liposomes. The experiments were performed in 10 mM Tris-buffer, in absence and presence of 0.15 M NaCl. Values represents mean of triplicate samples.
Dry lipid films were prepared by dissolving either dioleoylphosphatidylethanolamine (Avanti Polar Lipids, Alabaster, AL) (70 mol%) and dioleoylphosphatidylglycerol (30 mol%) in chloroform, and then removing the solvent by evaporation under vacuum overnight. Subsequently, buffer solution containing 10 mM Tris, pH 7.4, either with or without additional 150 mM NaCl, was added together with 0.1 M carboxyfluorescein (CF) (Sigma). After hydration, the lipid mixture was subjected to eight freeze-thaw cycles consisting of freezing in liquid nitrogen and heating to 60°C. Unilamellar liposomes with a diameter of about 130 nm (as found with cryo-TEM; results not shown) were generated by multiple extrusions through polycarbonate filters (pore size 100 nm) mounted in a LipoFast miniextruder (Avestin). Untrapped carboxyfluorescein was then removed by filtration through two subsequent Sephadex G-50 columns with the relevant Tris buffer as eluent. […] The CF release was monitored by fluorescence at 520 nm from a liposome dispersion (10 mM lipid in 10 mM Tris pH 7.4). […]

E. coli = assay: Radial diffusion assay (RDA), low-salt conditions; assay type: cell-based; details: 6 µl per well (3.6 µg protein), not digested with neutrophil elastase
Procedure: Figure 1 Generation of antimicrobial peptides by degradation of prothrombin and thrombin. (A) Degradation of the proteins was performed at 37°C for the indicated time periods. RDA was performed in low-salt conditions using E. coli as test organism. Each 4 mm-diameter well was loaded with 6 µl of the solution (corresponding to 3.6 µg protein). The bar diagrams indicate the diameter of the zones of clearance obtained (in mm). The inset visualizes the results obtained with prothrombin. C, buffer; NE, neutrophil elastase only. LL-37 (100 µM) was included for comparison. (B) Intact prothrombin (PT) and thrombin (T), and cleavage products from the different incubations with neutrophil elastase (NE, indicated above) were analyzed by SDS-PAGE (16.5% Tris-Tricine gel). The gels are overloaded (12 µg) in order to visualize generation of fragments of low molecular masses. Rightmost two lanes show PT and T proteins at 2 µg.
Figure 2 Activities of peptides derived from prothrombin. (A) Sequence of prothrombin and overlapping peptides (indicated by numbers). In addition to the regular overlapping peptides, peptide regions of high net charge, and/or content of predicted helical regions (Agadir; http://www.embl-heidelberg.de/Services/serrano/agadir/agadir-start.html) were selected. […] (B) Overlapping peptides of prothrombin were analyzed for antimicrobial activities against E. coli. […]

CC[C@H](C)[C@H](N)C(=O)N[C@@H](CC(C)C)C(=O)N[C@@H](CCCNC(=N)N)C(=O)N[C@@H](Cc1c[nH]c2ccccc12)C(=O)N1CCC[C@H]1C(=O)N[C@@H](Cc1c[nH]c2ccccc12)C(=O)N[C@@H](Cc1c[nH]c2ccccc12)C(=O)N1CCC[C@H]1C(=O)N[C@@H](Cc1c[nH]c2ccccc12)C(=O)N[C@@H](CCCNC(=N)N)C(=O)N[C@@H](CCCNC(=N)N)C(=O)N[C@@H](CCCCN)C(N)=O [Omiganan] (H-ILRWPWWPWRRK-NH2)
MIC (E. coli ATCC 25922 [1]): 20 µM (≈ 35.6 µg/mL) | MIC [2]: 2.5 µM (≈ 4.45 µg/mL) | MIC [3]: 80 µM (≈ 142 µg/mL) | MIC [4]: 20 µM (≈ 35.6 µg/mL) | MIC (S. aureus FDA 486): 20 µM (≈ 35.6 µg/mL) | MIC [5]: >160 µM | MIC [6]: 40 µM (≈ 71.2 µg/mL) | MIC [7]: 20 µM (≈ 35.6 µg/mL) | MIC (P. aeruginosa ATCC 27853): 160 µM (≈ 285 µg/mL) | MIC [8]: 160 µM (≈ 285 µg/mL) | MIC [9]: 10 µM (≈ 17.8 µg/mL) | MIC [10]: 20 µM (≈ 35.6 µg/mL) | MIC [11]: 10 µM (≈ 17.8 µg/mL) | MIC [12]: 5 µM (≈ 8.9 µg/mL) | MIC [13]: 20 µM (≈ 35.6 µg/mL) | MIC [14]: 40 µM (≈ 71.2 µg/mL) | MIC [15]: 10 µM (≈ 17.8 µg/mL) | MIC [16]: 40 µM (≈ 71.2 µg/mL) | MIC (S. aureus ATCC 29213): 10 µM (≈ 17.8 µg/mL) | MIC [17]: 20 µM (≈ 35.6 µg/mL) | MIC [18]: 80 µM (≈ 142 µg/mL) | MIC [19]: 20 µM (≈ 35.6 µg/mL) | MIC [20]: 20 µM (≈ 35.6 µg/mL) | MIC (S. pyogenes AP1): 5 µM (≈ 8.9 µg/mL) | MIC [21]: 20 µM (≈ 35.6 µg/mL)

VFRLKKWIQKVIDQFGE [VFR17]
antibacterial activity in viable count assay (E. coli ATCC 25922 [22]): significant antibacterial activity | leakage of liposomes (carboxyfluorescein release) ([23]; negatively charged liposomes, 10 mM Tris pH 7.4, absence and presence of 0.15 M NaCl, triplicate): induced leakage of liposomes | time to reach ∼80% of the maximum leakage ([23]; peptide at 1 µM, data not shown): ≤ 200 s

thrombin
antimicrobial activity in RDA, intact proteins (E. coli): inactive
